Sander's compilation of Henry's law constants (doi:10.1021/je3010535)

Assay: Henry solubility constant Hcp at 298.15 K (mol/(m3 Pa))
Conditions: reference: Hiatt (2013)

Row | SMILES | Henry solubility constant Hcp
1 | ClCC(Cl)(Cl)Cl [1,1,1,2-tetrachloroethane] | 0.0048
2 | CC(Cl)(Cl)Cl [1,1,1-trichloroethane] | 0.00069
3 | ClC(Cl)C(Cl)Cl [1,1,2,2-tetrachloroethane] | 0.033
4 | [2H]C([2H])(Cl)C([2H])(Cl)Cl [1,1,2-trichloroethane-d3] | 0.013
5 | ClCC(Cl)Cl [1,1,2-trichloroethane] | 0.014
6 | C=C(Cl)Cl [1,1-dichloroethene] | 0.00041
7 | CC=C(Cl)Cl [1,1-dichloropropene] | 0.00061
8 | [2H]c1c([2H])c(Cl)c(Cl)c(Cl)c1[2H] [1,2,3-trichlorobenzene-d3] | 0.015
9 | Clc1cccc(Cl)c1Cl [1,2,3-trichlorobenzene] | 0.015
10 | ClCC(Cl)CCl [1,2,3-trichloropropane] | 0.042
11 | Cc1ccc(C)c(C)c1 [1,2,4-trimethylbenzene] | 0.0032
12 | ClCC(Br)CBr (centres undefined) [1,2-dibromo-3-chloropropane] | 0.097
13 | [2H]C([2H])([2H])C([2H])(Cl)C([2H])([2H])Cl (centres undefined) [1,2-dichloropropane-d6] | 0.0036
14 | CC(Cl)CCl (centres undefined) [1,2-dichloropropane] | 0.0043
15 | [2H]c1c([2H])c([2H])c(C([2H])([2H])[2H])c(C([2H])([2H])[2H])c1[2H] [1,2-dimethylbenzene-d10] | 0.003
16 | Cc1ccccc1C [1,2-dimethylbenzene] | 0.0032
17 | Cc1cc(C)cc(C)c1 [1,3,5-trimethylbenzene] | 0.0023
18 | Clc1cccc(Cl)c1 [1,3-dichlorobenzene] | 0.0052
19 | ClCCCCl [1,3-dichloropropane] | 0.013
20 | Clc1ccc(Cl)cc1 [1,4-dichlorobenzene] | 0.0058
21 | Fc1ccc(Br)cc1 [1-bromo-4-fluorobenzene] | 0.0053
22 | Cc1ccc(Cl)cc1 [1-chloro-4-methylbenzene] | 0.0041
23 | Cc1ccc(C(C)C)cc1 [1-methyl-4-(1-methylethyl)-benzene] | 0.0018
24 | [2H]c1c([2H])c([2H])c2c(C([2H])([2H])[2H])c([2H])c([2H])c([2H])c2c1[2H] [1-methylnaphthalene-d10] | 0.046
25 | Cc1cccc2ccccc12 [1-methylnaphthalene] | 0.044

Row | SMILES | Henry solubility constant Hcp
26 | [2H]c1c([2H])c([2H])c(C(C)=O)c([2H])c1[2H] [1-phenylethanone-d5] | 2.3
27 | CC(=O)c1ccccc1 [1-phenylethanone] | 0.97
28 | CC(C)(Cl)Cl [2,2-dichloropropane] | 0.00044
29 | [2H]C([2H])(O)C([2H])([2H])Cl [2-chloroethanol-d4] | 5
30 | [2H]C([2H])([2H])C(=O)C([2H])([2H])CCC [2-hexanone-1,1,1,3,3-d5] | 0.17
31 | CCCCC(C)=O [2-hexanone] | 0.15
32 | COCCO [2-methoxyethanol] | 4.4
33 | CCCCC(C)CO (centres undefined) [2-methyl-1-hexanol] | 0.69
34 | Cc1ccc2ccccc2c1 [2-methylnaphthalene] | 0.035
35 | CC(C)O [2-propanol] | 1.1
36 | C=CC#N [2-propenenitrile] | 0.12
37 | Cc1cc(C(C)(C)C)cc(C(C)(C)C)c1 [3,5-di-tert-butyltoluene] | 0.0037
38 | Cc1cc(Br)cc(Br)c1 [3,5-dibromotoluene] | 0.017
39 | C=CCCl [3-chloro-1-propene] | 0.0013
40 | CC(=O)CC(C)C [4-methyl-2-pentanone] | 0.1
41 | CC(C)(C)c1ccccc1 [(1,1-dimethylethyl)-benzene] | 0.0016
42 | CCC(C)c1ccccc1 (centres undefined) [(1-methylpropyl)-benzene] | 0.0013
43 | CC(C)c1ccccc1 [(2-propyl)-benzene] | 0.0014
44 | ClC/C=C/CCl [(E)-1,4-dichloro-2-butene] | 0.035
45 | ClC/C=C\CCl [(Z)-1,4-dichloro-2-butene] | 0.03
46 | ClCc1ccccc1 [(chloromethyl)-benzene] | 0.02
47 | [2H]c1c([2H])c([2H])c([2H])c([2H])c1[2H] [benzene-d6] | 0.0018
48 | c1ccccc1 [benzene] | 0.0018
49 | [2H]c1c([2H])c([2H])c(Br)c([2H])c1[2H] [bromobenzene-d5] | 0.0065
50 | Brc1ccccc1 [bromobenzene] | 0.006

Row | SMILES | Henry solubility constant Hcp
51 | ClCBr [bromochloromethane] | 0.0066
52 | ClC(Cl)Br [bromodichloromethane] | 0.0052
53 | CBr [bromomethane] | 0.0013
54 | CCCCc1ccccc1 [butylbenzene] | 0.002
55 | S=C=S [carbon disulfide] | 0.00057
56 | [2H]c1c([2H])c([2H])c(Cl)c([2H])c1[2H] [chlorobenzene-d5] | 0.0036
57 | Clc1ccccc1 [chlorobenzene] | 0.0037
58 | CCCl [chloroethane] | 0.00085
59 | [2H]C([2H])=C([2H])Cl [chloroethene-d3] | 0.00038
60 | C=CCl [chloroethene] | 0.00039
61 | Cl/C=C\CCl [cis-1,3-dichloropropene] | 0.0095
62 | C1CCCCC1 [cyclohexane] | 0.00032
63 | Fc1c(F)c(F)c(-c2c(F)c(F)c(F)c(F)c2F)c(F)c1F [decafluorobiphenyl] | 0.0067
64 | ClC(Br)Br [dibromochloromethane] | 0.011
65 | BrCBr [dibromomethane] | 0.012
66 | FC(F)(Cl)Cl [dichlorodifluoromethane] | 0.00013
67 | [2H]C([2H])(Cl)Cl [dichloromethane-d2] | 0.0038
68 | ClCCl [dichloromethane] | 0.004
69 | [2H]C([2H])([2H])C([2H])([2H])OC([2H])([2H])C([2H])([2H])[2H] [diethyl ether-d10] | 0.013
70 | CCOCC [diethyl ether] | 0.011
71 | CC#N [ethanenitrile] | 0.6
72 | C=Cc1ccccc1 [ethenylbenzene] | 0.0044
73 | CCO[13C](C)=O [ethyl ethanoate-1-13C] | 0.071
74 | [2H]c1c([2H])c([2H])c(C([2H])([2H])C([2H])([2H])[2H])c([2H])c1[2H] [ethylbenzene-d10] | 0.002
75 | CCc1ccccc1 [ethylbenzene] | 0.002

Row | SMILES | Henry solubility constant Hcp
76 | Fc1ccccc1 [fluorobenzene] | 0.0016
77 | ClC(Cl)=C(Cl)C(Cl)=C(Cl)Cl [hexachlorobutadiene] | 0.0023
78 | Fc1c(F)c(F)c(F)c(F)c1F [hexafluorobenzene] | 0.00055
79 | CI [iodomethane] | 0.0018
80 | COC(C)=O [methyl ethanoate] | 0.12
81 | C=C(C)C(=O)OC [methyl methacrylate] | 0.043
82 | [2H]c1c([2H])c([2H])c(C([2H])([2H])[2H])c([2H])c1[2H] [methylbenzene-d8] | 0.002
83 | Cc1ccccc1 [methylbenzene] | 0.0021
84 | [2H]C([2H])([2H])C1([2H])C([2H])([2H])C([2H])([2H])C([2H])([2H])C([2H])([2H])C1([2H])[2H] [methylcyclohexane-d14] | 0.00031
85 | CC1CCCCC1 [methylcyclohexane] | 0.00032
86 | [2H]c1c([2H])c([2H])c2c([2H])c([2H])c([2H])c([2H])c2c1[2H] [naphthalene-d8] | 0.035
87 | c1ccc2ccccc2c1 [naphthalene] | 0.033
88 | [2H]c1c([2H])c([2H])c([N+](=O)[O-])c([2H])c1[2H] [nitrobenzene-d5] | 0.85
89 | O=[N+]([O-])c1ccccc1 [nitrobenzene] | 0.64
90 | ClC(Cl)C(Cl)(Cl)Cl [pentachloroethane] | 0.0059
91 | Fc1cc(F)c(F)c(F)c1F [pentafluorobenzene] | 0.00075
92 | C[13C](C)=O [propanone-2-13C] | 0.31
93 | CCCc1ccccc1 [propylbenzene] | 0.0019
94 | ClC(Cl)=C(Cl)Cl [tetrachloroethene] | 0.00099
95 | ClC(Cl)(Cl)Cl [tetrachloromethane] | 0.0005
96 | Cl/C=C/CCl [trans-1,3-dichloropropene] | 0.0058
97 | BrC(Br)Br [tribromomethane] | 0.022
98 | ClC=C(Cl)Cl [trichloroethene] | 0.0012
99 | ClCc1ccccc1CCl [α,α-dichloro-o-xylene] | 0.1
